The values below come from patent publication US20240002379A1, “ASYMMETRIC CONJUGATE COMPOUNDS” (Pheon Therapeutics Ltd., priority 2016, published 2024).

“Also recorded” adds a separate entry of the source. Read-outs that look alike come from different tables or passages of the source.

Experiment [1] relates to FaDu (head and neck cancer) cell line. The experiment is described as follows: MTT cytotoxicity assay, FaDu. The class given is cell-based. The conditions noted are these: Homo sapiens. The protocol: (§1) Tumor cell lines were maintained in RPMI1640 medium supplemented with 10% heat-inactivated fetal bovine serum, 2 mM L-glutamine and 1 mM sodium pyruvate. 1800 cells per well were seeded in a volume of 180 μl in a 96-well flat bottom polystyrene plate. The cells were allowed to adhere overnight at 37° C. in a CO2 incubator. Ligands were initially formulated in DMSO, and stocks stored at −80° C. They were then further formulated at lox concentration in RPMI1640 medium. 20 ul of diluted samples were added into each treatment well. On each plate, blank wells with no cells, and untreated wells containing cells, were included. Plates were then cultured at 37° C. in a CO2 incubator for 72 hrs. Cytotoxicity was evaluated using a tetrazolium salt-based assay, the MTT assay. After 72 hours, the supernatant was removed from each well and 200 μl of a sterile filtered 500 μg/ml MTT solution in water added to each well. The plates were then incubated at 37° C. in a CO2 incubator for 4 hrs. The supernatant was then removed and the formazan crystals formed solubilized by adding 150 μl of DMSO to each well. The plate was then read on a plate reader at 540 nm, and percentage cell survival calculated as follows: ((mean absorbance treated wells at concentration x−mean absorbance blank wells)[…](mean absorbance untreated wells at concentration x−mean absorbance blank wells))×100. Data were plotted as concentration in nM vs. % cell survival in Microsoft Excel, and IC50 values (concentration where cell survival is reduced by a half) were determined from the graph.
Background: Tetrazolium dyes change colour on reduction, which living cells bring about.

Experiment [2] has as its system PC3 (prostate) cell line. The experiment is described as follows: MTT cytotoxicity assay, PC3. Conditions: read-out: Cytotoxicity PC3 (nM, 72 hour). In kind it is cell-based. The protocol:
as §1

Experiment [3] relates to linear double-stranded HexARev DNA fragment. The experiment is described as follows: DNA cleavage assay, HexARev fragment. Conditions: ligand concentration 10 μM and 100 nM (FIG. 16). The class given is biochemical. The protocol:
The ability of a further series of compounds 13, 42, 59, 99 and the PBD dimer Talirine to cross-link DNA was determined using an assay involving a linear double-stranded HexARev fragment (FIG. 15).
The ability of 13 and of a series of compounds to cleave double-stranded DNA was investigated using a modification of the previously established DNA footprinting assay (34). Following an overnight incubation of the ligand-DNA complexes, the mixture was mixed with strand separation buffer containing 10 mM EDTA, 10 mM NaOH, 0.1% bromophenol blue, 80% formamide and incubated at 100° C. for 3 min. The mixture was then immediately cooled on ice and run on an 8% denaturing gel. […] Using the GA marker, these additional bands were identified as cleavage products produced by 13 at certain A sites of the DNA fragment.
The preparation of the TyrT DNA fragment (FIG. 8) and HexARev DNA fragment (FIG. 15) have been previously described (34). Briefly, the sequence which had been cloned into the BamHI site of pUC18 was obtained by cutting with HindIII and EcoRI. Radiolabelled DNA fragments were prepared by filling in the 3′-end of the HindIII site with [α-^32P]dATP using Klenow DNA polymerase (exo-).
The radiolabelled DNA fragment was separated from the remainder of the plasmid DNA on a 6% non-denaturing polyacrylamide gel. The gel (20 cm long, 0.3 mm thick) was run at 400 V in 1×TBE running buffer for about 1-2 h, until the bromophenol blue had run most of the way down the gel. The glass plates were separated and the position of the labelled DNA fragment was established by short (1 min) exposure to an X-ray film. The relevant band was then cut from the gel and the radiolabelled DNA eluted by adding 300 μL 10 mM Tris-HCl, pH 7.5 containing 0.1 mM EDTA and gently agitating overnight at room temperature. The eluted DNA was finally precipitated with ethanol and re-suspended in a suitable volume of 10 mM Tris-HCl, pH 7.5 containing 0.1 mM EDTA buffer so as to give at least 10 counts per second/μL on a hand-held Geiger counter. With fresh plasmid and α-^32P-dATP this process typically generated about 150 μL of radiolabelled fragment DNA. The absolute concentration of the DNA is not important, and it is typically lower than 10 nM.
Compounds such as 13 were synthesised as described above and the PBD dimer Talirine was obtained from Aurum Pharmatech LLC. Stock solution was prepared by dissolving the ligands in DMSO to give a concentration of 10 mM. From this stock solution, working solutions of the desired concentration were prepared by diluting with 10 mM Tris-HCl, pH 7.5 containing 10 mM NaCl.
Radiolabelled DNA (1.5 μL) was mixed with 1.5 μL ligand solution of various concentrations (10 μM-10 nM) and incubated overnight at 37° C.
Labelled DNA (1.5 μL) was mixed with 20 μL sterile water and 5 μL of denaturing loading solution (80% formamide containing 10 mM EDTA, 10 mM NaOH, 0.01% bromophenol blue). The sample was then incubated at 100° C. for 20 min with the micro-centrifuge tube cap open to allow evaporation.
Loading solution (4.5 μL) was added to samples from Section 2.1. The digestion products were boiled for 3 min at 100° C. and quickly cooled on ice prior to electrophoresis. Separation was performed on an 8% denaturing polyacrylamide gel (40 cm long, 0.3 mm thick) at 1500V for about 2 h until the dye reached the bottom of the gel. […]

Experiment [4] relates to three fluorescently labelled DNA sequences shown in FIG. 17. The experiment is described as follows: FRET DNA melting, the three DNA sequences shown in FIG. 17 together. Conditions: different concentrations, all three sequences, vs control DNA. In kind it is binding. The text has this:
Further FRET DNA melting studies were undertaken on a number of molecules using three fluorescently labelled sequences. The sequences (FIG. 17) were designed to provide additional evidence that the series can form inter- and intrastrand cross-links. Inosines were inserted in place of traditional DNA bases in some cases to limit the number of binding sites available for the compounds to interact with. The short duplexes used in this FRET study are relatively unstable in the duplex form with a melting temperature below 30° C. so that, in the absence of ligand, a large part of the melting occurs below the starting temperature of the experiment. […] Increasing concentrations of 13 cause a greater amount of the melting transition to appear at the higher temperature (i.e. a greater number of the DNA molecules are cross-linked). A greater effect for 5′-AIIAGAITTTI′-3′ can be observed at lower concentrations of 13.
Oligonucleotides were obtained from ATDbio (Southampton, UK) in lyophilised form. They were labelled with a fluorophore molecule (F=fluorescein) at the 5′-end and a quencher molecule (Q=dabcyl) at the 3′-end of the complementary strand. Each oligonucleotide was dissolved in distilled H2O to form stock solutions of 100 PM. Working solutions of 5 μM were prepared by diluting the stock solution with distilled H2O.
The following buffers were used: 250 mM phosphate buffer pH 7.4 (consisting of sodium dihydrogen phosphate and sodium phosphate diluted in distilled H2O) and 5 M sodium chloride buffer. A11 buffers and distilled H2O were filtered through a […] filter prior to use.
For the FRET experiments a stock solutions were prepared by dissolving compound (such as compound 13) in DMSO to give a concentration of 10 mM. From this stock solution, working solutions of the desired concentration were prepared by diluting the stock solution with distilled H2O.
The reaction mixture was comprised of 4 μL of 250 mM phosphate buffer (final concentration of 50 mM), 4 μL flourophor and 4 μL quencher molecule of the appropriate oligonucleotide for a final concentration of 0.2 PM, 4 μL 5 M sodium chloride (final concentration of 1 M NaCl), and 4 μL of distilled H2O. This mixture was heated in an Eppendorf tube at 90° C. for 1 min and slowly cooled down to room temperature. This process was carried out to anneal the single strands to double-stranded DNA. Following this, 4 μL of the ligand was added in the desired concentration and the mixture incubated overnight either at room temperature or 4° C. A control sample of DNA only was prepared by mixing 4 μL 250 mM phosphate buffer (final concentration of 50 mM) with 4 μL fluorophore-labelled and 4 μL quencher-labelled oligonucleotides (of the appropriate sequence) to give a final concentration of 0.2 PM, 4 μL 5 M sodium chloride (final concentration of 1 M NaCl) and 4 μL distilled H2O. This mixture was analysed without prior annealing.
Fluorescence melting profiles were measured using a Roche LightCycler using a total reaction volume of 20 μL. Initially, the samples were denatured by heating to 95° C. at a rate of 1° C. min^−1. The samples were then maintained at 95° C. for 5 min before annealing by cooling to 25° C. at 1° C. min^−1. The samples were then held at 25° C. for a further 5 min and finally melted by heating to 95° C. at 1° C. min^−1. Annealing steps and melting steps were all recorded and changes in fluorescence were measured at 520 nm.
Tm values were obtained from the first derivates of the melting profiles using the Roche LightCycler software.

The subject of experiment [5] is SW620 cell line (gastric). The experiment is described as follows: MTT cytotoxicity assay, SW620. The class given is cell-based. Conditions: Homo sapiens, read-out: Cytotoxicity SW620 (72 hours). The protocol: as §1
The test system of experiment [6] is LIM1215 cell line (gastric). The experiment is described as follows: MTT cytotoxicity assay, LIM1215. The class given is cell-based. Conditions: read-out: Cytotoxicity LIM1215 (72 hours). The protocol: as §1
The subject of experiment [7] is SW48 cell line (gastric). The experiment is described as follows: MTT cytotoxicity assay, SW48. Conditions: Homo sapiens, read-out: Cytotoxicity SW48 (72 hrs). The class given is cell-based. The protocol: as §1
Setting [8] is: MTT assay, 72 hour incubation, read-out: Cytotoxicity FaDu (nM, 72 hour).

Consider `COc1cc2c(cc1OCCCCCC(=O)N1C[C@@H](CCl)c3c1cc(O)c1ccccc31)N=C[C@@H]1CCCCN1C2=O` [Compound 24, (S)-3-((6-((S)-1-(Chloromethyl)-5-hydroxy-1,2-dihydro-3H-benzo[e]indol-3-yl)-6-oxohexyl)oxy)-2-methoxy-7,8,9,10-tetrahydrobenzo-[e]pyrido[1,2-a][1,4]diazepin-12(6aH)-one], for which the IC50 in experiment [1] (setting [8]) was 1.83 nM; in experiment [2] (MTT assay, 72 hour incubation), 0.12 nM.
As to `COc1cc2c(cc1OCc1cccc(CC(=O)N3C[C@@H](CCl)c4c3cc(OC(=O)N3CCN(C)CC3)c3ccccc43)c1)N=C[C@@H]1CCCCN1C2=O` [Compound 59, (S)-1-(Chloromethyl)-3-(2-(3-((((S)-2-methoxy-12-oxo-6a,7,8,9,10,12-hexahydrobenzo[e]pyrido[1,2-a][1,4]diazepin-3-yl)oxy)-methyl)phenyl)acetyl)-2,3-dihydro-1H-benzo[e]indol-5-yl 4-methyl-piperazine-1-carboxylate], the IC50 in experiment [1] (72 h, read-out: IC50 value in FaDu (prodrug form)) was 4500 nM; in experiment [2] (72 h), 900 nM. Moreover, the “cleavage of HexARev DNA fragment” value in experiment [3] was “limited cleavage”. Moreover, the “effect on melting temperature / DNA stabilisation” value in experiment [4] was “does not impact on the stabilisation temperature of the parent DNA; also recorded: does not increase in proportion to the concentration”.
With `COc1cc2c(cc1OCCCCCC(=O)N1C[C@@H](CCl)c3c1cc(O)c1ccccc31)N=C[C@@H]1CCCCN1C2=O` [Compound 99, (S)-3-((6-((S)-1-(Chloromethyl)-5-hydroxy-1,2-dihydro-3H-benzo[e]indol-3-Y1)-6-oxohexyl)oxyl)-2-methoxy-7,8,9,10-tetrahydrobenzo-[e]pyrido[1,2-a][1,4]diazepin-12(6aH)-one], the “cleavage of HexARev DNA fragment” value in experiment [3] is given as “cleave DNA”. Further, the IC50 was 0.045 nM in experiment [5] (SW-620, MTT assay, 72 hour incubation); 0.039 nM in experiment [6] (LIM1215, MTT assay, 72 hour incubation); 0.035 nM in experiment [7] (SW48, MTT assay, 72 hour incubation).
In the case of `O=C(O)c1cc(OCc2ccccc2)c2ccccc2c1` [Compound 77, 4-(Benzyloxy)-2-naphthoic acid], the “cleavage of HexARev DNA fragment” value in experiment [3] is “distinct cleavage patterns”.
For `COc1cc2c(cc1OCCCC(=O)N1C[C@@H](CCl)c3c1cc(O)c1ccccc31)N=C[C@@H]1Cc3ccccc3CN1C2=O` [Compound 53, (S)-3-(4-((S)-1-(Chloromethyl)-5-hydroxy-1,2-dihydro-3H-benzo[e]indol-3-yl)-4-oxobutoxy)-2-methoxy-7,12-dihydrobenzo[5,6][1,4]-diazepino[1,2-b]isoquinolin-14(6aH)-one], the IC50 in experiment [1] (setting [8]) was determined as 0.65 nM; in experiment [2] (MTT assay, 72 hour incubation), 0.02 nM.
For `COc1cc2c(cc1OCCCCCC(=O)N1C[C@@H](CCl)c3c1cc(OC(=O)N1CCN(C)CC1)c1ccccc31)N=C[C@@H]1CCCCN1C2=O` [Compound 57, (S)-1-(Chloromethyl)-3-(6-(((S)-2-methoxy-12-oxo-6a,7,8,9,10,12-hexahydrobenzo[e]pyrido[1,2-a][1,4]diazepin-3-yl)oxy)hexanoyl)-2,3-dihydro-1H-benzo[e]indol-5-yl 4-methylpiperazine-1-carboxylate], the IC50 in experiment [1] (72 h, read-out: Cytotoxicity FaDu (nM, 72 hour)) is > 10 nM; in experiment [5] (SW-620, 72 h), 1.1 nM; in experiment [6] (LIM1215, 72 h) it was 0.41 nM; in experiment [7] (SW48, 72 h) it was 0.042 nM; in experiment [2] (72 h), 3 nM.
